Source: patent US8653274B2, “Compounds suitable as precursors to compounds that are useful for imaging amyloid deposits” (AstraZeneca AB, priority 2008, dated 2014)

Target: amyloid deposits (Homo sapiens, UniProt P05067)
Assay: competition binding assay described in WO2007/086800
Settings: unlabeled compound

amyloid deposits, sequence (P05067 672-711 limits assumed): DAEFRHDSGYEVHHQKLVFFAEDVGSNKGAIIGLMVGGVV

CNc1ccc(-c2cc3cc(O)ccc3o2)c(F)n1 [2-(2-Fluoro-6-methylamino-pyridin-3-yl)-benzofuran-5-ol]
IC50: 0.013 µM
